Test results published in US20090305276A1, “Method for Predicting Skin Sensitizing Activity of Compounds” (priority 2008, published 2009).
Like-named read-outs stand apart in the source and are kept apart here.

Key:
[1] = system: NQO1; assay: NQO1 (quinone reductase) marker gene expression in cultured mammalian cells; type: cell-based; parameters: key: The ++ signs indicate positive response and the number represents the magnitude of response; The ++ signs indicate positive response and the number represents the magnitude of response; −−−: The dashed lines indicate no measurable response; −−−−: The dashed lines indicate no measurable response; −−−−−: The dashed lines indicate no measurable response; details: gene marker response, preliminary data
From the text: (§1) Specifically, chemicals would be placed in an appropriate vehicle such as DMSO and applied to appropriate mammalian cells, such as human keratinocytes (HaCat cells), 3D human skin cells, normal human epithelial cells (NHEK cells), MCF7 cells, H4IIE cells (ATCC Accession #CRL-1548), or combination cultures including keratinocyte and dendritic cells. Following exposure times of 6, 24, and 72 hr the expression levels of several genes that are associated with an increase risk for sensitization type reactions. The expression of key gene markers associated with sensitization that include but are not limited to quinone reductase, IL-8, CD-86, aldo-keto reductase, thioredoxin, and thioredoxin reductase is measured by RT-PCR.
(§2) In specific embodiments, the expression of gene markers is measured. Appropriate gene markers for the methods of the invention include but are not limited to quinone reductase, IL-8, CD-86, aldo-keto reductase, thioredoxin, and thioredoxin reductase. Expression levels may be measured by any appropriate method of measuring gene expression, including but not limited to polymerase chain reaction (PCR), reverse transcriptase PCR (RT-PCR), fluorescent in situ hybridization (FISH), branched DNA (bDNA) assay, differential display, RNA interference, reporter genes, microarrays, and proteomics. For instance, expression levels may be measured by RT-PCR in at least triplicates. The standard protocols for performing RT-PCR may be obtained from Invitrogen, (Carlsbad, Calif.). Standard methods and protocols for measuring gene expression are described in the literature and in treatises such as Sambrook et al., “Molecular Cloning: A Laboratory Manual” and Avison, Matthew, “Measuring Gene Expression,” Taylor and Francis (2006). These protocols are incorporated herein by reference in their entirety.
(§3) As shown in Table 2 (below), preliminary data were collected and used to build the algorithm for predicting the sensitization. NQO1 is quinone reductase; IL-8 is interleukin-8; and AKR is aldo-keto reductase.
(§4) The compounds listed in Table 2 are known skin sensitizers with different magnitudes of effect. In this example, three gene markers are measured to develop a relationship between the magnitude of response, the number of genes responding above about 15%, and the minimum exposure concentration where expression occurred. The ++ signs indicate positive response and the number represents the magnitude of response. The dashed lines indicate no measurable response.

[2] = system: AKR; assay: AKR (aldo-keto reductase) marker gene expression in cultured mammalian cells; type: cell-based; parameters: key: The ++ signs indicate positive response and the number represents the magnitude of response; The ++ signs indicate positive response and the number represents the magnitude of response; −−−: The dashed lines indicate no measurable response; −−−−: The dashed lines indicate no measurable response; −−−−−: The dashed lines indicate no measurable response; details: gene marker response, preliminary data
From the text: as §1, §2, §3, §4

[3] = system: skin; details: cited from earlier work
[4] = system: IL-8; assay: IL-8 (interleukin-8) marker gene expression in cultured mammalian cells; type: cell-based; parameters: key: The ++ signs indicate positive response and the number represents the magnitude of response; The ++ signs indicate positive response and the number represents the magnitude of response; −−−: The dashed lines indicate no measurable response; −−−−: The dashed lines indicate no measurable response; −−−−−: The dashed lines indicate no measurable response; details: gene marker response, preliminary data
From the text: as §1, §2, §3, §4

[5] = system: local draining lymph nodes (lymphocyte proliferation); details: known LLNA data; estimated concentration required to produce a stimulation index of 3; cited from earlier work
[6] = known skin sensitizers with different magnitudes of effect

Compound	NQO1 [1]	AKR [2]	Sensitizer Class [3, 6]	IL-8 [4]	LLNA E3C [5]	Sensitizer Class ([3]; in vivo)
O=C(O)c1ccccc1 [Benzoic Acid]	−−−−	−−−−−	Non-	−−−−−		
O=C(C=Cc1ccccc1)OCc1ccccc1 [Benzyl Cinnamate]	++	++		−−−		
CC=Cc1ccc(O)c(OC)c1 [Isoeugenol]	+	++	Moderate	+	110	
O=C(Oc1ccccc1)c1ccccc1 [Phenyl Benzoate]	+	−−−−	Weak	+	863	
O=C1OC(=O)c2ccccc21 [Phthalic Anhydride]	++	++	Strong	+	10.8	
CCCOC(=O)c1cc(O)c(O)c(O)c1 [Propyl Gallate]	++	++		++	15.09	Strong
COc1cc(C=O)ccc1O [Vanillin]	+	−−−−	Very Weak	−−−−		
